This is an account of results in patent publication US8586739B2, “Heterocyclic compounds and their uses” (Amgen Inc., priority 2007, dated 2013).

The experiment concerns human B cells. The experiment can be described thus: Human B cells proliferation stimulated by anti-IgM (3H thymidine). Type of experiment: cell-based. The method, then:
Human B Cells Proliferation stimulate by anti-IgM
Isolate PBMCs from Leukopac or from human fresh blood. Isolate human B cells by using Miltenyi protocol and B cell isolation kit II.—human B cells were Purified by using autoMACS® column.
Activation of Human B Cells
Use 96 well Flat bottom plate, plate 50000/well purified B cells in B cell proffer-ation medium (DMEM+5% FCS, 10 mM Hepes, 50 μM 2-mercaptoethanol); 150 μL medium contain 250 ng/mL CD40L-LZ recombinant protein (Amgen) and 2 μg/mL anti-Human IgM antibody (Jackson ImmunoReseach Lab.#109-006-129), mixed with 50 μL B cell medium containing PI3K inhibitors and incubate 72 h at 37° C. incubator. After 72 h, pulse labeling B cells with 0.5-1 uCi/well ^3H thymidine for overnight ˜18 h, and harvest cell using TOM harvester.

The mark [1] stands for this setting: Homo sapiens, B-cell, 72 h, purified human B cells, anti-Human IgM + CD40L-LZ.

Consider `CS(=O)(=O)c1cccc2nc(-c3ccccc3Cl)c(CNc3ncnc4[nH]cnc34)nc12` [N-((3-(2-chlorophenyl)-8-(methylsulfonyl)-2-quinoxalinyl)methyl)-9H-purin-6-amine], for which the 50% inhibitory concentration (IC50) (commonly the concentration at which inhibition is half-maximal) under setting [1] was found to be 2.41 µM.
Take `C[C@H](Nc1ncnc2[nH]cnc12)c1cc2ccc(F)cc2nc1-c1cccc(F)c1` [N-((1S)-1-(7-fluoro-2-(3-fluorophenyl)-3-quinolinyl)ethyl)-9H-purin-6-amine]: the 50% inhibitory concentration (IC50) under setting [1] worked out at 0.0115 µM.
On to `Fc1cccc2nc(CNc3ncnc4[nH]cnc34)c(-c3ccccc3Cl)nc12` [N-((3-(2-Chlorophenyl)-5-fluoroquinoxalin-2-yl)methyl)-9H-purin-6-amine], for which the IC50 under setting [1] stood at 0.299 µM.
Turning to `C[C@H](Nc1ncnc2nc[nH]c12)c1cc2cccc(F)c2nc1-c1cccnc1` [N-((1S)-1-(8-fluoro-2-(3-pyridinyl)-3-quinolinyl)ethyl)-7H-purin-6-amine], the IC50 under setting [1] was determined as 0.0154 µM.
As to `C[C@H](Nc1ncnc2nc[nH]c12)c1cc2cccc(F)c2nc1-c1ccccc1Cl` [N-((1S)-1-(2-(2-chlorophenyl)-8-fluoro-3-quinolinyl)ethyl)-7H-purin-6-amine], the IC50 under setting [1] amounted to 0.0114 µM.
Still for that read-out and setting: under `CC(Oc1ccc(F)cc1-c1nc2c(Cl)cccc2cc1CNc1ncnc2[nH]cnc12)c1ccccc1` (centres unmarked) [N-((8-chloro-2-(5-fluoro-2-(1-phenylethoxy)phenyl)-3-quinolinyl)methyl)-9H-purin-6-amine] stands 0.565 µM; under `Fc1ccc(Cl)c(-c2nc3c(Cl)cccc3cc2CNc2ncnc3[nH]cnc23)c1` [N-((8-chloro-2-(2-chloro-5-fluorophenyl)-3-quinolinyl)methyl)-9H-purin-6-amine], 0.0384 µM; under `C[C@H](Nc1ncnc2[nH]cnc12)c1cc2cccc(Cl)c2nc1-c1ccccn1` [N-((1S)-1-(8-chloro-2-(2-pyridinyl)-3-quinolinyl)ethyl)-9H-purin-6-amine], 0.00324 µM.
For the compound `Cc1ncccc1-c1nc2c(Cl)cccc2cc1CNc1ncnc2[nH]cnc12` [N-((8-chloro-2-(2-methyl-3-pyridinyl)-3-quinolinyl)methyl)-9H-purin-6-amine], under setting [1], the IC50 came to 0.0134 µM.
On to `C[C@@H](Nc1ncnc2[nH]cnc12)c1nc2cccc(Cl)c2nc1-c1cccc(F)c1` [N-((R)-1-(5-Chloro-3-(3-fluorophenyl)quinoxalin-2-yl)ethyl)-9H-purin-6-amine], for which, under setting [1], the IC50 was determined as 0.0139 µM.
As for `C[C@H](Nc1ncnc2[nH]cnc12)c1nc2cccc(Cl)c2nc1-c1cc(F)ccc1Cl` [N-((1S)-1-(5-chloro-3-(2-chloro-5-fluorophenyl)-2-quinoxalinyl)ethyl)-9H-purin-6-amine], the IC50 under setting [1] turned out to be 0.0893 µM.
Still for that read-out and setting: the same measure for `Clc1cccc2cc(CNc3ncnc4[nH]cnc34)c(-c3ccccc3)nc12` [N-((8-chloro-2-phenyl-3-quinolinyl)methyl)-9H-purin-6-amine]: 0.219 µM.
As to `Fc1ccc(F)c(-c2nc3c(Cl)cccc3cc2CNc2ncnc3[nH]cnc23)c1` [N-((8-chloro-2-(2,5-difluorophenyl)-3-quinolinyl)methyl)-9H-purin-6-amine], the IC50 under setting [1] is 0.0382 µM.
As to `Fc1cccc(-c2nc3c(Cl)cccc3nc2CNc2ncnc3[nH]cnc23)c1` [N-((5-Chloro-3-(3-fluorophenyl)quinoxalin-2-yl)methyl)-9H-purin-6-amine], the half-maximal inhibitory concentration (IC50) under setting [1] worked out at 0.0719 µM.
Consider `Fc1cccc(-c2cc3c(Cl)cccc3nc2CNc2ncnc3[nH]cnc23)c1` [N-((5-chloro-3-(3-fluorophenyl)-2-quinolinyl)methyl)-9H-purin-6-amine], for which the concentration for half-maximal inhibition (IC50) under setting [1] worked out at 0.13 µM.
In the case of `C[C@H](Nc1ncnc2[nH]cnc12)c1cc2cccc(Cl)c2nc1-c1nccs1` [N-((1S)-1-(8-chloro-2-(1,3-thiazol-2-yl)-3-quinolinyl)ethyl)-9H-purin-6-amine], under setting [1], the IC50 worked out at 0.00164 µM.
In the case of `C[C@H](Nc1ncnc2[nH]cnc12)c1nc2cccc(Cl)c2cc1-c1cccc(F)c1` [N-((1S)-1-(5-chloro-3-(3-fluorophenyl)-2-quinolinyl)ethyl)-9H-purin-6-amine], the IC50 under setting [1] came out at 0.00878 µM.
Same read-out and setting: the same measure for `Clc1cccc2cc(CNc3ncnc4[nH]cnc34)c(-c3nccs3)nc12` [N-((8-chloro-2-(1,3-thiazol-2-yl)-3-quinolinyl)methyl)-9H-purin-6-amine]: 0.209 µM.
On to `C[C@H](Nc1ncnc2[nH]cnc12)c1cc2cccc(-c3ccccc3)c2nc1-c1ccccc1` [N-((1S)-1-(2,8-diphenyl-3-quinolinyl)ethyl)-9H-purin-6-amine], for which the IC50 under setting [1] worked out at 0.0188 µM.
In the case of `C[C@H](Nc1ncnc2[nH]cnc12)c1cc2cccc(Cl)c2nc1-c1ccccc1F` [N-((1S)-1-(8-chloro-2-(2-fluorophenyl)-3-quinolinyl)ethyl)-9H-purin-6-amine], the half-inhibitory concentration (IC50) by setting is: under setting [1], 0.00356 µM; (Homo sapiens, B-cell, purified human B cells, anti-Human IgM + CD40L-LZ, 72 h) 0.00356 µM.
In the case of `N#Cc1ccccc1-c1nc2c(Cl)cccc2cc1CNc1ncnc2[nH]cnc12` [2-(8-chloro-3-((9H-purin-6-ylamino)methyl)-2-quinolinyl)benzonitrile], the IC50 under setting [1] worked out at 0.0551 µM.
For `C[C@H](Nc1ncnc2[nH]cnc12)c1cc2cccc(Cl)c2nc1-c1cccc(F)n1` [N-((1S)-1-(8-chloro-2-(6-fluoro-2-pyridinyl)-3-quinolinyl)ethyl)-9H-purin-6-amine], the IC50 under setting [1] came out at 0.0031 µM.
The same measure, in the same setting: under `C[C@H](Nc1ncnc2[nH]cnc12)c1cc2cccc(-c3ccccn3)c2nc1-c1ccccn1` [N-((1S)-1-(2,8-di-2-pyridinyl-3-quinolinyl)ethyl)-9H-purin-6-amine] stands 0.0674 µM; under `CC(C)c1cccc(-c2nc3c(Cl)cccc3cc2CNc2ncnc3[nH]cnc23)c1` [N-((8-chloro-2-(3-(1-methylethyl)phenyl)-3-quinolinyl)methyl)-9H-purin-6-amine], 0.305 µM.
Take `C[C@H](Nc1ncnc2[nH]cnc12)c1nc2cccc(Cl)c2nc1-c1cccc(F)c1` [N-((S)-1-(5-Chloro-3-(3-fluorophenyl)quinoxalin-2-yl)ethyl)-9H-purin-6-amine]: under setting [1], the half-maximal inhibitory concentration (IC50) was 0.00855 µM.
With `CC(C)c1ncncc1-c1nc2c(Cl)cccc2cc1CNc1ncnc2[nH]cnc12` [N-((8-chloro-2-(4-(1-methylethyl)-5-pyrimidinyl)-3-quinolinyl)methyl)-9H-purin-6-amine], under setting [1], the IC50 is 0.0789 µM.
For `CC(C)Cc1ncc(F)cc1-c1nc2c(Cl)cccc2cc1[C@H](C)Nc1ncnc2[nH]cnc12` [N-((1S)-1-(8-chloro-2-(5-fluoro-2-(2-methylpropyl)-3-pyridinyl)-3-quinolinyl)ethyl)-9H-purin-6-amine], the IC50 under setting [1] was found to be 0.0155 µM.
Regarding `C[C@H](Nc1ncnc2[nH]cnc12)c1cc2cccc(Cl)c2nc1-c1cnccc1C(N)=O` [3-(8-chloro-3-((1S)-1-(9H-purin-6-ylamino)ethyl)-2-quinolinyl)-4-pyridinecarboxamide], the IC50 under setting [1] came out at 4.63 µM.
Turning to `C[C@H](Nc1ncnc2[nH]cnc12)c1cc2cccc(Cl)c2nc1-c1cccnn1` [N-((1S)-1-(8-chloro-2-(3-pyridazinyl)-3-quinolinyl)ethyl)-9H-purin-6-amine], the half-maximal inhibitory concentration (IC50) under setting [1] was 0.018 µM.
On to `C[C@H](Nc1ncnc2[nH]cnc12)c1cc2cccc(Cl)c2nc1Oc1ccccc1` [N-((1S)-1-(8-chloro-2-phenoxy-3-quinolinyl)ethyl)-9H-purin-6-amine], for which the IC50 under setting [1] was found to be 0.0293 µM.
`C[C@H](Nc1ncnc2nc[nH]c12)c1cc2cccc(F)c2nc1-c1cc(F)cc(Cl)c1` [N-((1S)-1-(2-(3-chloro-5-fluorophenyl)-8-fluoro-3-quinolinyl)ethyl)-7H-purin-6-amine]: the IC50 under setting [1] turned out to be 0.00809 µM.
The same measure, in the same setting: under `Clc1cccc2cc(CNc3ncnc4[nH]cnc34)c(-c3ccns3)nc12` [N-((8-chloro-2-(5-isothiazolyl)-3-quinolinyl)methyl)-9H-purin-6-amine] stands 0.0656 µM.
The same measure, in the same setting: under `OCC[C@H](Nc1ncnc2[nH]cnc12)c1cc2cccc(Cl)c2nc1-c1ccccc1Cl` [(3S)-3-(8-chloro-2-(2-chlorophenyl)-3-quinolinyl)-3-(9H-purin-6-ylamino)-1-propanol] stands 0.0131 µM; under `Fc1ccc2cc(CNc3ncnc4[nH]cnc34)c(-c3ccccc3Cl)nc2c1` [N-((2-(2-chlorophenyl)-7-fluoro-3-quinolinyl)methyl)-9H-purin-6-amine], 0.0887 µM; under `Fc1cccc2cc(CNc3ncnc4nc[nH]c34)c(-c3ccccc3)nc12` [N-((8-fluoro-2-phenyl-3-quinolinyl)methyl)-7H-purin-6-amine], 0.24 µM.
For the compound `C[C@H](Nc1ncnc2[nH]cnc12)c1cc2cccc(-c3cccc(F)c3)c2nc1-c1cccc(F)c1` [N-((1S)-1-(2,8-bis(3-fluorophenyl)-3-quinolinyl)ethyl)-9H-purin-6-amine], under setting [1], the half-maximal inhibitory concentration (IC50) was 0.00106 µM.
In the case of `Nc1nc(NCc2cc3cccc(Cl)c3nc2-c2ccccc2Cl)c2nc[nH]c2n1` [N6-((8-chloro-2-(2-chlorophenyl)-3-quinolinyl)methyl)-9H-purine-2,6-diamine], under setting [1], the half-maximal inhibitory concentration (IC50) amounted to 0.0089 µM.
As to `FC(F)(F)c1ccccc1-c1nc2c(Cl)cccc2nc1CNc1ncnc2[nH]cnc12` [N-((5-chloro-3-(2-(trifluoromethyl)phenyl)-2-quinoxalinyl)methyl)-9H-purin-6-amine], the IC50 under setting [1] is 0.0418 µM.
As for `CCC[C@H](Nc1ncnc2[nH]cnc12)c1cc2cccc(Cl)c2nc1-c1cccc(F)c1` [N-((1S)-1-(8-chloro-2-(3-fluorophenyl)-3-quinolinyl)butyl)-9H-purin-6-amine], the IC50 under setting [1] was 0.00652 µM.
Turning to `Fc1cccc2nc(-c3ccccc3Cl)c(CNc3ncnc4[nH]cnc34)nc12` [N-((3-(2-Chlorophenyl)-8-fluoroquinoxalin-2-yl)methyl)-9H-purin-6-amine], under setting [1], the IC50 stood at 0.177 µM.
